Source: the kinase profiling compilation of Christmann-Franck et al. (2016)

What was measured:
Test in all cases: Caliper, Mobility shift assay off-chip
[1] = molecular target: ZAP70 (human) (UniProt P43403)
[2] = molecular target: FGFR4 (human) (UniProt P22455)
[3] = molecular target: NEK9 (human) (UniProt Q8TD19)
[4] = molecular target: EPHA3 (human) (UniProt P29320)
[5] = molecular target: PIK3CA PIK3R1 (human) (UniProt P27986+P42336)
[6] = molecular target: DYRK2 (human) (UniProt Q92630)
[7] = molecular target: STK38L (human) (UniProt Q9Y2H1)
Sequence of STK38L (human) (Q9Y2H1 whole entry, looked up): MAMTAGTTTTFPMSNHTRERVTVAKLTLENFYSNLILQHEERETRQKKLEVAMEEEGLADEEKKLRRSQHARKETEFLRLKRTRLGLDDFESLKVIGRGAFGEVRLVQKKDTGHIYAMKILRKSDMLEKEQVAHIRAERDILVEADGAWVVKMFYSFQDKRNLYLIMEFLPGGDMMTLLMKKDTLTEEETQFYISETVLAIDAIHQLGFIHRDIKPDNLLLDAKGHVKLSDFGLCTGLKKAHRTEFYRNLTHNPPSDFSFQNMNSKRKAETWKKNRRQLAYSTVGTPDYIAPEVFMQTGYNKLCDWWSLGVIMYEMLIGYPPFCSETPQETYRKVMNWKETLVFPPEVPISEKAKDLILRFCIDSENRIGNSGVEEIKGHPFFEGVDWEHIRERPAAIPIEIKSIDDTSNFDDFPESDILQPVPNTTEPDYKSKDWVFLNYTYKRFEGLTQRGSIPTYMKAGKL

[8] = molecular target: NTRK1 (human) (UniProt P04629)
[9] = molecular target: STK10 (human) (UniProt O94804)
[10] = molecular target: PAK1 (human) (UniProt Q13153)
Sequence of PAK1 (human) (Q13153 whole entry, looked up): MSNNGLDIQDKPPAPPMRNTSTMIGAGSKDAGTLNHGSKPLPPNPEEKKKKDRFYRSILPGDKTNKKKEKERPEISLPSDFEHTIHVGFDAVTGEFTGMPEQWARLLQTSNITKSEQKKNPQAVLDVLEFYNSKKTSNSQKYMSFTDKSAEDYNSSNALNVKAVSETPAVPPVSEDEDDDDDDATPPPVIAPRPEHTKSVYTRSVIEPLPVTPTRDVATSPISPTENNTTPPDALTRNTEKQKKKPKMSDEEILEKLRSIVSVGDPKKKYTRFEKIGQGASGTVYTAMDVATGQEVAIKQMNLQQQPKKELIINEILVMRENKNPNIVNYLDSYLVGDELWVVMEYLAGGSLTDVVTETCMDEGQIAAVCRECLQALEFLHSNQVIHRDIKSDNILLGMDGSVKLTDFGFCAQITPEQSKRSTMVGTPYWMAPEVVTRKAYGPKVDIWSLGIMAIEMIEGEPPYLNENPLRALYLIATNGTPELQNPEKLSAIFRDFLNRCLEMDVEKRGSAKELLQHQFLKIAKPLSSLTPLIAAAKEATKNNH

[11] = molecular target: CDC42BPB (human) (UniProt Q9Y5S2)
[12] = molecular target: PRKCD (human) (UniProt Q05655)
[13] = molecular target: EPHA5 (human) (UniProt P54756)
Sequence of EPHA5 (human) (P54756 whole entry, looked up): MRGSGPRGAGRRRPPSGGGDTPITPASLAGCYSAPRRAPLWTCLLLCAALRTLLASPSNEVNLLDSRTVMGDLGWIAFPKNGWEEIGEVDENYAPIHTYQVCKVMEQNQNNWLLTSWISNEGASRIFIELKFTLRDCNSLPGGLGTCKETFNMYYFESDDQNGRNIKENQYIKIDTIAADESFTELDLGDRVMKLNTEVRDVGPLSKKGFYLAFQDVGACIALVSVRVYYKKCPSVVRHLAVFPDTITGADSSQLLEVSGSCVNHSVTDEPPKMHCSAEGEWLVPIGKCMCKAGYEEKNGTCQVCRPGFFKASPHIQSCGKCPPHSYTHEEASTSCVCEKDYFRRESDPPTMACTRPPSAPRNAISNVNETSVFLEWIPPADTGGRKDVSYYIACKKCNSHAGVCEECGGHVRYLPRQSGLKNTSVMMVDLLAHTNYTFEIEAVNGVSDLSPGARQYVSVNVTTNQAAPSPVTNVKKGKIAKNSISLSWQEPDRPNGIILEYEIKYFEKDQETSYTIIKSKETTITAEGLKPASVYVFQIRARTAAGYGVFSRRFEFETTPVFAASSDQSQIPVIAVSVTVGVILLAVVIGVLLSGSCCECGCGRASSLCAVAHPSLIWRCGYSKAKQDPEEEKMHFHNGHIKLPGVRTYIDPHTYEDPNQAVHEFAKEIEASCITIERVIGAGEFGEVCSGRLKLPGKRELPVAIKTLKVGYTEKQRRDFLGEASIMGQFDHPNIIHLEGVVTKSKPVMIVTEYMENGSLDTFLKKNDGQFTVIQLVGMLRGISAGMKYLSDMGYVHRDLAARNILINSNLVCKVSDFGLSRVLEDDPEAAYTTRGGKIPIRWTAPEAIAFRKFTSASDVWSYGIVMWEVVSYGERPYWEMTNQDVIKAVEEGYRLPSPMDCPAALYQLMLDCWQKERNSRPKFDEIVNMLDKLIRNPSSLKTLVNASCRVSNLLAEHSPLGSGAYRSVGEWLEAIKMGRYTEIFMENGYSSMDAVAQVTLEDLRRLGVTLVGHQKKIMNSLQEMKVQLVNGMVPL

[14] = molecular target: WNK3 (human) (UniProt Q9BYP7)
[15] = molecular target: SIK1 (human) (UniProt P57059)
[16] = molecular target: PAK6 (human) (UniProt Q9NQU5)
[17] = molecular target: SRPK2 (human) (UniProt P78362)
[18] = molecular target: GSK3A (human) (UniProt P49840)
[19] = molecular target: PTK2 (human) (UniProt Q05397)
[20] = molecular target: IGF1R (human) (UniProt P08069)
[21] = molecular target: MST4 (human) (UniProt Q9P289)
[22] = molecular target: MAPK1 (human) (UniProt P28482)
[23] = molecular target: PRKCA (human) (UniProt P17252)
[24] = molecular target: PDK4 (human) (UniProt Q16654)
[25] = molecular target: FES (human) (UniProt P07332)
[26] = molecular target: EPHA7 (human) (UniProt Q15375)
[27] = molecular target: DAPK1 (human) (UniProt P53355)
Sequence of DAPK1 (human) (P53355 whole entry, looked up): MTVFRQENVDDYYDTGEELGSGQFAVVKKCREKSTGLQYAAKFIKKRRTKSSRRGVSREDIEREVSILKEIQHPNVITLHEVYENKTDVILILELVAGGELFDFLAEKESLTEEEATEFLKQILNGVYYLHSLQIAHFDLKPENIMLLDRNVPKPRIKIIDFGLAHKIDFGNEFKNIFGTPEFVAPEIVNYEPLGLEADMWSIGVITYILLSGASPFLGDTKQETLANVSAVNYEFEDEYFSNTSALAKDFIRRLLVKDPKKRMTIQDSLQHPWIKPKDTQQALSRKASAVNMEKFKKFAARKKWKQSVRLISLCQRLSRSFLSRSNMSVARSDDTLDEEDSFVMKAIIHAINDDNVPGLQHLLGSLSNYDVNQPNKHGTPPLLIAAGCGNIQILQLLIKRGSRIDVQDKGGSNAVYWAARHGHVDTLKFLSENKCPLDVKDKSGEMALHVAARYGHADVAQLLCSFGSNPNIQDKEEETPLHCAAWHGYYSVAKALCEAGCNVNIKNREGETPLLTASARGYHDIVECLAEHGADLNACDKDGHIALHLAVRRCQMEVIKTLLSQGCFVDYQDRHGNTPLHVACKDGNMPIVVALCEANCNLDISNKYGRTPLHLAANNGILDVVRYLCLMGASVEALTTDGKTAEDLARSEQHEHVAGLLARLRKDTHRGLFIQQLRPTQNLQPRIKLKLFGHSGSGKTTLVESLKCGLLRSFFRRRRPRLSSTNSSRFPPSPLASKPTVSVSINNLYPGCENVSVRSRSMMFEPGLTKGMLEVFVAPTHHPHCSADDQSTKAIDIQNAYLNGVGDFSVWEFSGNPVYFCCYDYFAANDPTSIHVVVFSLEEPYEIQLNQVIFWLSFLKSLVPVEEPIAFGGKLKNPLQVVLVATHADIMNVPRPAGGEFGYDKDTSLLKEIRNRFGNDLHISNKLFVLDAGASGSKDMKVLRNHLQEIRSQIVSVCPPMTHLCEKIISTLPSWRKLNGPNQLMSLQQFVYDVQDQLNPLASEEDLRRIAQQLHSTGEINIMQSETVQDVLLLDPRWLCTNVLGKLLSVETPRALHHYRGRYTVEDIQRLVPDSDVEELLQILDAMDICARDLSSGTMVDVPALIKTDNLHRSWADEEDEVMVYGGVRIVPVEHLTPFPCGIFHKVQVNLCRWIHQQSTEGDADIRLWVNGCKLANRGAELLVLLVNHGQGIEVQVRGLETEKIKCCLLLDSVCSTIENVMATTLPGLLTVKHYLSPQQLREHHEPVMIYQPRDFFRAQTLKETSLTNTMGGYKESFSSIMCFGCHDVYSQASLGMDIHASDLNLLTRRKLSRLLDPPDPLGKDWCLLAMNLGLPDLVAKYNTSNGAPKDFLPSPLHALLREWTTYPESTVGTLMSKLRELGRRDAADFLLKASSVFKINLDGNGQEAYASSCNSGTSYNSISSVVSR

[28] = molecular target: MAPK13 (human) (UniProt O15264)
[29] = molecular target: MAP4K2 (human) (UniProt Q12851)
[30] = molecular target: PRKG2 (human) (UniProt Q13237)
[31] = molecular target: AURKC (human) (UniProt Q9UQB9)
[32] = molecular target: PDGFRB (human) (UniProt P09619)
[33] = molecular target: GSK3B (human) (UniProt P49841)

Sequence of ZAP70 (human) (P43403 whole entry, looked up): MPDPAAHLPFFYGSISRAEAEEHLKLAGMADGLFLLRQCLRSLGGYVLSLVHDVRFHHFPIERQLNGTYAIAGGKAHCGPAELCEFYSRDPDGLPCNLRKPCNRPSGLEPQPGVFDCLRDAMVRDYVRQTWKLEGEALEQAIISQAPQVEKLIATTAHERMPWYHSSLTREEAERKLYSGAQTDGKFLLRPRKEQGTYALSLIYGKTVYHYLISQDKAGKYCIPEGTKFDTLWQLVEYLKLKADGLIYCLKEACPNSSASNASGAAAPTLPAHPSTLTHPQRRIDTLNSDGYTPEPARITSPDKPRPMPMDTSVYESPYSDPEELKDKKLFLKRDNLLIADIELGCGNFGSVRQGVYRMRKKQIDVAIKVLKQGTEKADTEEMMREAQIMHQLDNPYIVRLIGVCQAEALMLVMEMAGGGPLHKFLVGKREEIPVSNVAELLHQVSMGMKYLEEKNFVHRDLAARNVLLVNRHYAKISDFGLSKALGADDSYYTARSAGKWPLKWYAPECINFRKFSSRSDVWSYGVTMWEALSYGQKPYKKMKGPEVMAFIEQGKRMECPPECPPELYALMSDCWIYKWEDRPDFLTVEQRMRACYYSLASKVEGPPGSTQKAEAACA
Sequence of NEK9 (human) (Q8TD19 whole entry, looked up): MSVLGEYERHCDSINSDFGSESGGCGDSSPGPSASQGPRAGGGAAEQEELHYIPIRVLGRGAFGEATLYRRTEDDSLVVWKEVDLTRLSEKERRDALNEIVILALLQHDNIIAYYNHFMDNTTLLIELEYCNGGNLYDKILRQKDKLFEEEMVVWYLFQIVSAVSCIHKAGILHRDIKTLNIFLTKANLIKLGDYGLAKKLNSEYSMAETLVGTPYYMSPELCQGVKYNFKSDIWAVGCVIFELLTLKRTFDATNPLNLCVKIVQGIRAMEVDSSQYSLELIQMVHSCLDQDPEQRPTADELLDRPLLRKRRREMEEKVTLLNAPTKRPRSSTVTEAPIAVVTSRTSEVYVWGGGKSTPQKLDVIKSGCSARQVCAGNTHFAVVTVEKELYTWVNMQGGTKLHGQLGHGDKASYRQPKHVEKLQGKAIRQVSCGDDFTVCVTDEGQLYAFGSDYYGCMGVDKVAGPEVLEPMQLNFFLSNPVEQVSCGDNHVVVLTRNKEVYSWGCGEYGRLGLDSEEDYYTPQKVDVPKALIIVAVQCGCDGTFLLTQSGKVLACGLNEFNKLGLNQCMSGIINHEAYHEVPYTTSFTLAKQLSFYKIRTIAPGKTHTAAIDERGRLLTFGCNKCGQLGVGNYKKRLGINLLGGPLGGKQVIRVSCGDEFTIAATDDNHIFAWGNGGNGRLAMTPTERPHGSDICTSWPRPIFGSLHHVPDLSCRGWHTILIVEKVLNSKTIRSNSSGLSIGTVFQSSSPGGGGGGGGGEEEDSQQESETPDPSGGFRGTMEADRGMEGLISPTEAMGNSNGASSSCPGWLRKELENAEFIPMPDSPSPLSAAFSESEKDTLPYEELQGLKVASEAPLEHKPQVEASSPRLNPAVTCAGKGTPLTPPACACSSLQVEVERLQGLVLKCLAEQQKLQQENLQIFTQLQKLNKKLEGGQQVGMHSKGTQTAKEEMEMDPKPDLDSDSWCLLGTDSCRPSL

CNC(=O)c1ccccc1Sc1ccc2c(/C=C/c3ccccn3)n[nH]c2c1
inhibition ([1]; compound 0.001 µM): -0.5%
inhibition ([1]; compound 0.02 µM): 2.7%
inhibition ([2]; compound 0.001 µM): 0%
inhibition ([2]; compound 0.02 µM): -3.4%
inhibition ([3]; compound 0.001 µM): -5.6%
inhibition ([3]; compound 0.02 µM): -3.7%
inhibition ([4]; compound 0.001 µM): -7.7%
inhibition ([4]; compound 0.02 µM): -4.2%
inhibition ([5]; compound 0.001 µM): 40.8%
inhibition ([5]; compound 0.02 µM): 40.7%
inhibition ([6]; compound 0.001 µM): 8.7%
inhibition ([6]; compound 0.02 µM): -6.4%
inhibition ([7]; compound 0.001 µM): 8.1%
inhibition ([7]; compound 0.02 µM): -0.1%
inhibition ([8]; compound 0.001 µM): 2.9%
inhibition ([8]; compound 0.02 µM): 21.6%
inhibition ([9]; compound 0.001 µM): 6.2%
inhibition ([9]; compound 0.02 µM): 21.3%
inhibition ([10]; compound 0.001 µM): -1.5%
inhibition ([10]; compound 0.02 µM): -1.5%
inhibition ([11]; compound 0.001 µM): -8.6%
inhibition ([11]; compound 0.02 µM): 2.9%
inhibition ([12]; compound 0.001 µM): 15.6%
inhibition ([12]; compound 0.02 µM): -0.9%
inhibition ([13]; compound 0.001 µM): -5.3%
inhibition ([13]; compound 0.02 µM): -3.9%
inhibition ([14]; compound 0.001 µM): 0.8%
inhibition ([14]; compound 0.02 µM): -1.4%
inhibition ([15]; compound 0.001 µM): -5.3%
inhibition ([15]; compound 0.02 µM): -4.6%
inhibition ([16]; compound 0.001 µM): -7%
inhibition ([16]; compound 0.02 µM): 0.1%
inhibition ([17]; compound 0.001 µM): -9.3%
inhibition ([17]; compound 0.02 µM): -6.5%
inhibition ([18]; compound 0.001 µM): 2.4%
inhibition ([18]; compound 0.02 µM): 0.2%
inhibition ([19]; compound 0.001 µM): -7.1%
inhibition ([19]; compound 0.02 µM): -5.9%
inhibition ([20]; compound 0.001 µM): 0.7%
inhibition ([20]; compound 0.02 µM): -1.8%
inhibition ([21]; compound 0.001 µM): -4.6%
inhibition ([21]; compound 0.02 µM): -8%
inhibition ([22]; compound 0.001 µM): -5.9%
inhibition ([22]; compound 0.02 µM): -7.2%
inhibition ([23]; compound 0.001 µM): 15.9%
inhibition ([23]; compound 0.02 µM): 0.7%
inhibition ([24]; compound 0.001 µM): 0.1%
inhibition ([24]; compound 0.02 µM): -0.5%
inhibition ([25]; compound 0.001 µM): 2.9%
inhibition ([25]; compound 0.02 µM): 1.5%
inhibition ([26]; compound 0.001 µM): -3.2%
inhibition ([26]; compound 0.02 µM): -0.8%
inhibition ([27]; compound 0.001 µM): -5%
inhibition ([27]; compound 0.02 µM): 4.8%
inhibition ([28]; compound 0.001 µM): -3.3%
inhibition ([28]; compound 0.02 µM): -3.7%
inhibition ([29]; compound 0.001 µM): -2.6%
inhibition ([29]; compound 0.02 µM): 4.8%
inhibition ([30]; compound 0.001 µM): -4.8%
inhibition ([30]; compound 0.02 µM): -6%
inhibition ([31]; compound 0.001 µM): -2.1%
inhibition ([31]; compound 0.02 µM): 42.3%

CCN(CC)CCNC(=O)c1c(C)[nH]c(/C=C2\C(=O)Nc3ccc(F)cc32)c1C
inhibition ([1]; compound 0.2 µM): 6.8%
inhibition ([1]; compound 4.0 µM): 37.7%
inhibition ([2]; compound 0.2 µM): 10.3%
inhibition ([2]; compound 4.0 µM): 62.6%
inhibition ([3]; compound 0.2 µM): 0%
inhibition ([3]; compound 4.0 µM): 20.7%
inhibition ([4]; compound 0.2 µM): -0.2%
inhibition ([4]; compound 4.0 µM): 21.2%
inhibition ([6]; compound 0.2 µM): 25%
inhibition ([6]; compound 4.0 µM): 87.4%
inhibition ([7]; compound 0.2 µM): 6.1%
inhibition ([7]; compound 4.0 µM): 32.7%
inhibition ([8]; compound 0.2 µM): 99.7%
inhibition ([8]; compound 4.0 µM): 101%
inhibition ([9]; compound 0.2 µM): 62.1%
inhibition ([10]; compound 0.2 µM): -2.8%
inhibition ([10]; compound 4.0 µM): 1.8%
inhibition ([11]; compound 0.2 µM): -0.5%
inhibition ([11]; compound 4.0 µM): 14.2%
inhibition ([12]; compound 0.2 µM): 0.9%
inhibition ([12]; compound 4.0 µM): 48.4%
inhibition ([13]; compound 0.2 µM): 6.7%
inhibition ([13]; compound 4.0 µM): 50.8%
inhibition ([14]; compound 0.2 µM): 1.8%
inhibition ([14]; compound 4.0 µM): 2.4%
inhibition ([15]; compound 0.2 µM): 15%
inhibition ([15]; compound 4.0 µM): 76.1%
inhibition ([32]; compound 0.2 µM): 98.9%
inhibition ([32]; compound 4.0 µM): 102%
inhibition ([33]; compound 0.2 µM): 1.1%
inhibition ([33]; compound 4.0 µM): 23.7%
inhibition ([16]; compound 0.2 µM): 6%
inhibition ([16]; compound 4.0 µM): 22.2%
inhibition ([17]; compound 0.2 µM): -0.5%
inhibition ([17]; compound 4.0 µM): 21.1%
inhibition ([18]; compound 0.2 µM): 3.3%
inhibition ([18]; compound 4.0 µM): 21.8%
inhibition ([20]; compound 0.2 µM): 40.1%
inhibition ([20]; compound 4.0 µM): 93%
inhibition ([21]; compound 0.2 µM): 4%
inhibition ([21]; compound 4.0 µM): 63.2%
inhibition ([22]; compound 0.2 µM): -7.5%
inhibition ([22]; compound 4.0 µM): -1.7%
inhibition ([23]; compound 0.2 µM): 0.1%
inhibition ([23]; compound 4.0 µM): 28.7%
inhibition ([24]; compound 0.2 µM): 1.6%
inhibition ([24]; compound 4.0 µM): 22.6%
inhibition ([26]; compound 0.2 µM): 19.8%
inhibition ([26]; compound 4.0 µM): 82%
inhibition ([27]; compound 0.2 µM): 64.4%
inhibition ([27]; compound 4.0 µM): 98.7%
inhibition ([28]; compound 0.2 µM): -3.4%
inhibition ([28]; compound 4.0 µM): -4.3%
inhibition ([29]; compound 0.2 µM): 69.5%
inhibition ([30]; compound 0.2 µM): 9.3%
inhibition ([30]; compound 4.0 µM): 65.5%
inhibition ([31]; compound 0.2 µM): 23.2%
inhibition ([31]; compound 4.0 µM): 87.1%
